Measurements taken from US8173682B2, “Substituted pyridones as inhibitors of poly(ADP-ribose) polymerase (PARP)” (Aventis Pharmaceuticals Inc., priority 2004, dated 2012).
Where a name gives a salt, the structure may show the parent alone.

What was measured:
[1] = molecular target: recombinantly expressed human PARP-1 enzyme (Homo sapiens, UniProt P09874); experiment: PARP enzyme assay, Method B (tritium-labeled NAD incorporation); type: biochemical; settings: Method B; 200 μM NAD, room temperature 1 hour, pH 8.0; read-out: IC50 (μM)/Method B
Experimental: Method B: PARP Enzyme Assay:
The IC50 is determined in this method by incubating the substances to be tested with the DNA-activated, recombinantly expressed and purified PARP-1 enzyme. Specifically, various concentrations of the test substance are incubated in 50 μL of reaction solution, which contains 50 mM Tris, 5 mM MgCl2, 1 mM DTT, 200 μM NAD, 0.1 m Ci/mL tritium-labeled NAD, 0.1 mg/mL DNA, 0.1 mg/mL histones, 2 μg/mL recombinantly expressed human PARP-1 enzyme, pH=8.0, at room temperature for 1 hour. The reaction is stopped by adding 150 μL of 20% trichloroacetic acid, and the radiolabeled protein constituents are precipitated. After incubation on ice for 10 minutes, the labeled, insoluble constituents are separated off through a glass fiber filter and, after washing with 20% trichloroacetic acid three times, the radioactivity incorporated by the PARP-1 enzyme is measured by radioluminescence. Consideration of the incorporation rates determined in this way as a function of the concentration of the test substance results in IC50 as the concentration of the test substance which reduces the incorporation rate to half the maximum value attainable (incubation without inhibitor).
The IC50 (fifty percent inhibitory concentration of the test substance in a solution—expressed at micromolar (μM) concentration) measured in accordance with these procedures for the compounds of this invention are summarized in Table 1.

[2] = molecular target: T1, recombinant human PARP (PARP1) (Homo sapiens, UniProt P09874); experiment: PARP enzyme assay, Method A (radioactivity or 'ELISA' enzyme assay with partially purified enzyme); type: biochemical; settings: recombinant human PARP preparation, radioactive or ELISA enzyme assay
T1 construct: Full length human PARP (PARP1) is assembled from PCR fragments; His6 tag with TEV site, from the pFastBac-HTb vector (own knowledge of the vector); made in house; host or cells: insect cells, baculovirus (Bac-to-Bac, Gibco-BRL)
Method in brief: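 Partially purified recombinant full-length His-tagged human PARP1, baculovirus-expressed. Radioactive format: 100 μg/mL sonicated DNA, 100 μg/mL histones, 100 mM Tris pH 8.0, 10 mM MgCl2, 200 μM labeled NAD, 10 min 37 °C or 60 min RT, TCA-precipitated counts. ELISA format: 250 μM NAD plus biotin-NAD on histone plates, TMB A450.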

T1 sequence (P09874 whole entry, the tested form may be a part): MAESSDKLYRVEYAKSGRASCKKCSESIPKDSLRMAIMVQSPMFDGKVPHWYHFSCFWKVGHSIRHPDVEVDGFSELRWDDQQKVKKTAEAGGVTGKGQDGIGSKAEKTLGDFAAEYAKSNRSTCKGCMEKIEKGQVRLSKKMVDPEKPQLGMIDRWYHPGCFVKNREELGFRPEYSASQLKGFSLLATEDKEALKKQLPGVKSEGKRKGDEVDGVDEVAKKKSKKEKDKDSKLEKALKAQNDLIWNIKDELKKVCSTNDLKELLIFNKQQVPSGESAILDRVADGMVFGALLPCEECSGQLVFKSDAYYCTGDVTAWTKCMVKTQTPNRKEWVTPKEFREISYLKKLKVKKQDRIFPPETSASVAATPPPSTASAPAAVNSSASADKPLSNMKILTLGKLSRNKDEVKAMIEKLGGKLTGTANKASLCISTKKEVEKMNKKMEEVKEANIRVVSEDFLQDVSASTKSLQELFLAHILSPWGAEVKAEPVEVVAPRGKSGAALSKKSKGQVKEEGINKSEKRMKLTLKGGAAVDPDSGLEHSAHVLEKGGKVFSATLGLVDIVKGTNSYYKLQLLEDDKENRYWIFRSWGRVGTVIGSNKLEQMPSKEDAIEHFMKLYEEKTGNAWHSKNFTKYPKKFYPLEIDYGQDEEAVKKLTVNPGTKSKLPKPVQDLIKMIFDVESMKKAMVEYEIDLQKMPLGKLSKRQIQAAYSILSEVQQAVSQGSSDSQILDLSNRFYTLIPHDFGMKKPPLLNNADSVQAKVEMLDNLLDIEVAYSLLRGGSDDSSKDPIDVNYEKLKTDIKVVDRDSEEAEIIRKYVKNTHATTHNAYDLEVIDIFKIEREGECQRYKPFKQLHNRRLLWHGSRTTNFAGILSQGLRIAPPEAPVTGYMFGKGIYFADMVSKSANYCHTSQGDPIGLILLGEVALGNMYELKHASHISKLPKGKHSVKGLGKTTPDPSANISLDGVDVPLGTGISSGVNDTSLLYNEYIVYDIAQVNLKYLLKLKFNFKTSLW
Chain of recombinantly expressed human PARP-1 enzyme (P09874 whole entry): as the sequence (P09874 whole entry, the tested form may be a part) above

IC50 [1] [µM]	IC50 [2] [µM]	SMILES
	0.22	CCc1cc(-c2ccc(CN3CCC(F)C3)s2)c(C)[nH]c1=O (centres unmarked) [Example 173, 5-{5-[(3-Fluoropyrrolidin-1-ylmethyl)(thiophen-2-yl)-3-ethyl-6-methyl-1H-pyridin-2-one hydrochloride]
	1.3	CCc1cc(-c2ccc(CN3CCC(OC)C3)s2)c(C)[nH]c1=O (centres unmarked) [Example 174, 3-Ethyl-5-{5-[(3-methoxypyrrolidin-1-ylmethyl)(thiophen-2-yl)-6-methyl-1H-pyridin-2-one hydrochloride]
	0.15	CCc1cc(-c2ccc(CN)s2)c(C)[nH]c1=O [Example 175, 5-(5-Aminomethylthiophen-2-yl)-3-ethyl-6-methyl-1H-pyridin-2-one hydrochloride]
	0.28	CCc1cc(-c2ccc(CNC(=O)CN3CCCC3)s2)c(C)[nH]c1=O [Example 176, N-[5-(5-Ethyl-2-methyl-6-oxo-1,6-dihydropyridin-3-yl)thiophen-2-ylmethyl]-2-(pyrrolidin-1-yl)acetamide hydrochloride]
	0.49	CCc1cc(-c2ccc(CNC(=O)CN(C)C)s2)c(C)[nH]c1=O [Example 177, 2-Dimethylamino-N-[5-(5-ethyl-2-methyl-6-oxo-1,6-dihydropyridin-3-yl)thiophen-2-ylmethyl]acetamide hydrochloride]
	0.4	CCc1cc(-c2ccc(CNCc3cccc(C(F)(F)F)c3F)s2)c(C)[nH]c1=O [Example 178, 3-Ethyl-5-{5-[(2-fluoro-3-trifluoromethylbenzylamino)methyl](thiophen-2-yl)-6-methyl-1H-pyridin-2-one hydrochloride]
	2.4	CCc1cc(-c2ccc(CN3CCC(Cc4ccccc4)CC3)s2)c(C)[nH]c1=O [Example 183, 5-[5-(4-Benzylpiperidin-1-ylmethyl)thiophen-2-yl]-3-ethyl-6-methyl-1H-pyridin-2-one hydrochloride]
	2.7	CCc1cc(-c2ccc(CN3CCC(c4ccccc4)CC3)s2)c(C)[nH]c1=O [Example 184, 3-Ethyl-6-methyl-5-[5-(4-phenylpiperidin-1-ylmethyl)thiophen-2-yl]-1H-pyridin-2-one hydrochloride]
	1.8	CCc1cc(-c2ccc(CN3CCC(O)(c4ccccc4)CC3)s2)c(C)[nH]c1=O [Example 185, 3-Ethyl-5-[5-(4-hydroxy-4-phenylpiperidin-1-ylmethyl)thiophen-2-yl]-6-methyl-1H-pyridin-2-one hydrochloride]
	0.4	CCc1cc(-c2ccc(CNCc3ccccc3OC)s2)c(C)[nH]c1=O [Example 187, 3-Ethyl-5-{5-[(2-methoxybenzylamino)methyl]thiophen-2-yl}-6-methyl-1H-pyridin-2-one hydrochloride]
	0.84	CCc1cc(-c2ccc(CNCc3ccccc3Cl)s2)c(C)[nH]c1=O [Example 188, 5-{5-[(2-Chlorobenzylamino)methyl]thiophen-2-yl}-3-ethyl-6-methyl-1H-pyridin-2-one hydrochloride]
	0.41	CCc1cc(-c2ccc(CNC3CCCC3)s2)c(C)[nH]c1=O [Example 189, 5-(5-Cyclopentylaminomethylthiophen-2-yl)-3-ethyl-6-methyl-1H-pyridin-2-one hydrochloride]
	0.54	CCc1cc(-c2ccc(CNC3CCCCC3)s2)c(C)[nH]c1=O [Example 190, 5-(5-Cyclohexylaminomethylthiophen-2-yl)-3-ethyl-6-methyl-1H-pyridin-2-one hydrochloride]
	0.8	CCc1cc(-c2ccc(CN3CCC[C@H]3COC)s2)c(C)[nH]c1=O [Example 191, 3-Ethyl-5-{5-[(S)-2-methoxymethylpyrrolidin-1-ylmethyl]thiophen-2-yl}-6-methyl-1H-pyridin-2-one hydrochloride]
	0.26	CCc1cc(-c2ccc(CNCc3ccccc3F)s2)c(C)[nH]c1=O [Example 192, 3-Ethyl-5-{5-[(2-fluoro-benzylamino)-methyl]-thiophen-2-yl}-6-methyl-1H-pyridin-2-one hydrochloride]
	0.67	CCc1cc(-c2ccc(CNCc3ccccn3)s2)c(C)[nH]c1=O [Example 195, 3-Ethyl-6-methyl-5-(5-{[(pyridin-2-ylmethyl)amino]methyl}thiophen-2-yl)-1H-pyridin-2-one hydrochloride]

Further lines, the compound ahead of its results:

SMILES	IC50 [1] [µM]	IC50 [2] [µM]
CCc1cc(-c2ccc(S(=O)(=O)NCc3ccccn3)s2)c(C)[nH]c1=O [Example 31, 5-(5-Ethyl-2-methyl-6-oxo-1,6-dihydropyridin-3-yl)thiophene-2-sulfonic acid (pyridin-2-yl)methylamide hydrochloride]	0.44	
CCc1cc(-c2ccc(CNCc3cc(F)cc(F)c3)s2)c(C)[nH]c1=O [Example 158, 5-[5-(3,5-Difluorobenzylaminomethyl)thiophen-2-yl]-3-ethyl-6-methyl-1H-pyridin-2-one hydrochloride]		0.51
CCc1cc(-c2ccc(CNC3CCN(Cc4ccccc4)C3)s2)c(C)[nH]c1=O (centres unmarked) [Example 159, 5-{5-[(1-Benzyl-pyrrolidin-3-ylamino)-methyl]-thiophen-2-yl}-3-ethyl-6-methyl-1H-pyridin-2-one dihydrochloride]		0.72
CCc1cc(-c2ccc(CN3CCC(N4CCCC4)CC3)s2)c(C)[nH]c1=O [Example 160, 3-Ethyl-6-methyl-5-[5-(4-pyrrolidin-1-ylpiperidin-1-ylmethyl)-thiophen-2-yl]1-1H-pyridin-2-one dihydrochloride]		1.7
CCc1cc(-c2ccc(CNCc3nccn3C)s2)c(C)[nH]c1=O [Example 161, 3-Ethyl-6-methyl-5-(5-{[(1-methyl-1H-imidazol-2-yl)methyl)amino]methyl}-thiophen-2-yl)-1H-pyridin-2-one dihydrochloride]		1.3
CCc1cc(-c2ccc(CNCc3cccnc3)s2)c(C)[nH]c1=O [Example 162, 3-Ethyl-6-methyl-5-{5-{[(pyridin-3-ylmethyl)amino]methyl}thiophen-2-yl)-1H-pyridin-2-one dihydrochloride]		0.52
CCc1cc(-c2ccc(CNCCc3cccnc3)s2)c(C)[nH]c1=O [Example 163, 3-Ethyl-6-methyl-5-{5-{[(pyridin-3-ylethyl)amino]methyl}thiophen-2-yl)-1H-pyridin-2-one dihydrochloride]		1.7
CCc1cc(-c2ccc(CNCc3cccc(Cl)c3)s2)c(C)[nH]c1=O [Example 164, 5-{5-[(3-Chlorobenzylamino)methyl]thiophen-2-y}]-3-ethyl-6-methyl-1H-pyridin-2-one hydrochloride]		0.69
CCc1cc(-c2ccc(CNCc3cccc(C)c3)s2)c(C)[nH]c1=O [Example 165, 5-{5-[(3-Methylbenzylamino)methyl]thiophen-2-y}]-3-ethyl-6-methyl-1H-pyridin-2-one hydrochloride]		0.98
CCc1cc(-c2ccc(CNCc3ccc(C)cc3)s2)c(C)[nH]c1=O [Example 166, 5-{5-[(4-Methylbenzylamino)methyl]thiophen-2-y}]-3-ethyl-6-methyl-1H-pyridin-2-one hydrochloride]		0.68
CCc1cc(-c2ccc(CNCc3cccc(OC)c3)s2)c(C)[nH]c1=O [Example 167, 5-{5-[(3-Methoxybenzylamino)methyl]thiophen-2-y}]-3-ethyl-6-methyl-1H-pyridin-2-one hydrochloride]		0.55
CCc1cc(-c2ccc(CNCc3ccc(Cl)cc3)s2)c(C)[nH]c1=O [Example 168, 5-{5-[(4-chlorobenzylamino)methyl]thiophen-2-y}]-3-ethyl-6-methyl-1H-pyridin-2-one hydrochloride]		0.4
CCc1cc(-c2ccc(CNCc3ccc(OC)cc3)s2)c(C)[nH]c1=O [Example 169, 5-{5-[(4-Methoxybenzylamino)methyl]thiophen-2-y}]-3-ethyl-6-methyl-1H-pyridin-2-one hydrochloride]		0.6
CCc1cc(-c2ccc(CNCc3cccs3)s2)c(C)[nH]c1=O [Example 170, 3-Ethyl-6-methyl-5-(5-{[(thiophen-2-ylmethyl)amino]methyl}-thiophen-2-yl)-1H-pyridin-2-one hydrochloride]		0.28
CCc1cc(-c2ccc(CN3CCCC3)s2)c(C)[nH]c1=O [Example 171, 3-Ethyl-6-methyl-5-(5-pyrrolidin-1-ylmethylthiophen-2-yl)-1H-pyridin-2-one hydrochloride]		0.48
CCc1cc(-c2ccc(CN3CCC(F)(F)C3)s2)c(C)[nH]c1=O [Example 172, 5-{5-[(3,3-Difluoropyrrolidin-1-ylmethyl)(thiophen-2-yl)-3-ethyl-6-methyl-1H-pyridin-2-one hydrochloride]		1
